Where two headings read alike, the source gives them in different places.
Key:
[1] = parameters: species or system human; details: in vivo
Experimental: Total lipid content in placental tissue was determined according to Smedes (1999), while enzymatic lipid determination of triglyceride and cholesterol was performed on the plasma samples and total lipid was calculated as described by Covaci et al (2006).

[2] = parameters: method as in PMID 11999784; details: cited from earlier work
[3] = in vivo; cited from earlier work
[4] = tested on: human placenta
Experimental: The study was approved by the regional Ethics Committee (KF 01-145/03 + KF(11) 260063) and the Data Protection Agency. All mothers gave informed written consent. […] The placentas were injected with a Krebs Ringer buffer containing heparin (5000 IU/ml, 5 ml/l medium) to prevent any remaining blood in fetal vessels from coagulating. The perfusions were performed in a dual perfusion system as previously described. […] Next, the lobule containing the perfused cotyledon was cut from the placenta (9 cm diameter) and placed in the perfusion chamber. The maternal circulation was connected by blunt cannulation of the intervillous space surrounding the perfused cotyledon. The perfusion media (100 mL each in fetal and maternal reservoirs) were circulated by peristaltic pumps and consisted of Krebs Ringer Buffer containing heparin (5000 IU/mL, Copenhagen University Hospital Pharmacy, 5 mL/L medium), glucose (0.6 g/100 mL), Pen-Strep (1% Substrate department standard solution, Panum Institute Copenhagen) and physiological levels of Human Serum Albumin (20% solution, CSL Behring Gmbh, dialysed in Krebs Ringer Buffer, maternal reservoir: 30 g/L; fetal reservoir: 40 g/L) and gassed with 95% O2/5% CO2 and 95% N2/5% CO2 in the maternal and fetal reservoirs, respectively. […] After at least 30 minutes of pre-perfusion to stabilise temperature and oxygen content, BDE-47, BDE-99 and BDE-209 (Cambridge Isotopes Laboratories, 1 μg/mL in ethanol, 100 μL added; final concentration of 1 ng/mL) and the positive control substance antipyrine dissolved in H2O (Aldrich-Chemie, Germany; final concentration of 100 μg/mL) were added to the maternal reservoir. The applied concentrations of PBDEs were a compromise between achieving final levels relatively close to in vivo levels and having a detection frequency close to 100%. […] The perfusions were run for four hours, and 6 mL were sampled at t = 0 from the maternal circulation and from both reservoirs before addition of the compounds and at 2, 30, 60, 130, 190 and 240 minutes after addition of the compounds. The sampled volume was not replaced.
The pH (7.2-7.4), glucose and lactate concentrations (glucose > 6 mM), and O2 tension in the maternal perfusion medium (30-35 kPa), in the fetal perfusion medium (10-15 kPa), and in the fetal venous outflow (15-20 kPa) were measured every 30 minutes using an ABL5 blood gas analyser (Radiometer, Denmark). Adjustments were made using 1 M HCl or 1 M NaOH to adjust pH, glucose solution (2,61 g/L) and increasing or decreasing the rate of 95% N2/5% CO2 gassing in the fetal perfusate or 95% O2/5% CO2 gassing in the maternal perfusate to adjust pO2 after each measurement.
In addition to the perfusion samples, the three PBDE congeners were analysed in umbilical cord blood and in the placental tissue before and after the perfusion. Samples of umbilical cord blood were taken if possible and processed to collect plasma. Subsamples of the placental tissue were taken before perfusion as well as from the cotyledon and the surrounding tissue after perfusion. Prior to placenta perfusions, adsorption tests had been performed: The chambers and tubes were perfused without placental tissue to investigate loss of substance during the perfusion, for instance through adsorption to the perfusion system.

[5] = tested on: human placenta; details: cited from earlier work

Compound: Brc1c(Br)c(Br)c(Oc2c(Br)c(Br)c(Br)c(Br)c2Br)c(Br)c1Br [BDE-209, decabromo diphenyl ether]
- Non-perfused placental tissue level [1]: < LOQ
- Umbilical cord plasma level [1]: < LOQ
- logKow [2]: ≥ 10
- median level in placental tissue [3]: 1.14 ng/g lw
- observed blood levels, Denmark [3]: ~ 0.014 ng/ml
- observed blood levels, elsewhere [3]: 0.009 to 0.15 ng/mL
- Cotyledon (perfused tissue) level ([4]; 4 h, 1 ng/mL): 107.8 (64.2-159.5) ng/g lw
- Surrounding placental tissue level ([4]; 4 h, 1 ng/mL): 22.2 (16.3-31.8) ng/g lw
- concentration in perfused cotyledon relative to background ([4]; 4 h, 1 ng/mL): 20 times
- concentration in surrounding tissue relative to background ([4]; 4 h, 1 ng/mL): 100 times
- mass balance: amount unaccounted for (system adsorption) ([4]; 4 h, 1 ng/mL): -8%
- mass balance: fraction of added amount in cotyledon ([4]; 4 h, 1 ng/mL): 24%
- mass balance: fraction of added amount in fetal circulation ([4]; 4 h, 1 ng/mL): 0%
- mass balance: fraction of added amount in maternal circulation ([4]; 4 h, 1 ng/mL): 27%
- mass balance: fraction of added amount in surrounding placental tissue ([4]; 4 h, 1 ng/mL): 19%
- mass balance: fraction of added amount removed by sampling ([4]; 4 h, 1 ng/mL): 38%

Compound: Cc1cc(=O)n(-c2ccccc2)n1C [antipyrine, reference compound]
- indicative permeability coefficient (IPC) [5]: 0.94 h⁻¹
- FM-ratio at 190 min ([4]; 190 min, 100 µg/mL): 1.04

Compound: c1ccc2c(c1)cc1ccc3cccc4ccc2c1c34 [benzo(a)pyrene]
- indicative permeability coefficient (IPC) ([5]; human placenta perfusion): 0.08 h⁻¹

Compound: Cn1c(=O)c2c(ncn2C)n(C)c1=O [caffeine]
- indicative permeability coefficient (IPC) ([5]; not told): 1.03 h⁻¹

Compound: O=C(O)CNCP(=O)(O)O [glyphosate]
- indicative permeability coefficient (IPC) ([5]; perfused in the same human placenta model): 0.11 h⁻¹

Source: PMC2908602, “Placental transfer of the polybrominated diphenyl ethers BDE-47, BDE-99 and BDE-209 in a human placenta perfusion system: an experimental study” (Environmental Health, 2010)
